Reference: patent US12404283B2, “c-MYC mRNA translation modulators and uses thereof in the treatment of cancer” (Anima Biotech Inc., priority 2022, dated 2025)

System: c-Myc
Experiment: c-Myc immunofluorescence assay
Assay type: cell-based, human
Conditions: A549 cells, 24 hours treatment, anti-c-Myc immunofluorescence
Summary of the method: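 A549 cells grown 48 h, exposed 24 h to rising compound concentrations, then fixed, permeabilised and stained for c-Myc plus DAPI. Nuclear-segmented c-Myc fluorescence quantified by high-content imaging at 20×; EC50 from logistic dose–response fits.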

| SMILES | Myc Efficacy (−LogEC50) |
| --- | --- |
| CNC(=O)c1ccc(-c2cn3c(n2)sc2cc(C(=O)NCC4CCCO4)ccc23)cc1 (stereo not drawn) [compound 204, 2-(4-(methylcarbamoyl)phenyl)-N-((tetrahydrofuran-2-yl)methyl)benzo[d]imidazo [2,1-b]thiazole-7-carboxamide] | + (+ >3 and <5) |
| CNC(=O)c1ccc(-c2cn3c(n2)sc2cc(C(=O)NC4CCCCC4N)ccc23)cc1 (stereo not drawn) [compound 205, N-(2-aminocyclohexyl)-2-(4-(methylcarbamoyl)phenyl) benzo[d]imidazo[2,1-b]thiazole-7-carboxamide] | + (+ >3 and <5) |
| CNC(=O)c1ccc(-c2cn3c(n2)sc2cc(C(=O)NC4(C(F)(F)F)COC4)ccc23)cc1 [compound 206, 2-(4-(methylcarbamoyl)phenyl)-N-(3-(trifluoromethyl)oxetan-3-yl)benzo[d]imidazo[2,1-b]thiazole-7-carboxamide] | − (− ≤3) |
| CNC(=O)c1ccc(-c2cn3c(n2)sc2cc(C(=O)N[C@H]4CCCN(C)C4)ccc23)cc1 [compound 207, (S)-2-(4-(methylcarbamoyl)phenyl)-N-(1-methylpiperidin-3-yl)benzo[d]imidazo[2,1-b]thiazole-7-carboxamide] | ++ (++ ≥5 and <6) |
| CCC(CNC(=O)c1ccc2c(c1)sc1nc(-c3ccc(C(=O)NC)cc3)cn12)N(C)C (stereo not drawn) [compound 208, N-(2-(dimethylamino)butyl)-2-(4-(methylcarbamoyl)phenyl) benzo[d]imidazo[2,1-b]thiazole-7-carboxamide] | + (+ >3 and <5) |
| CNC(=O)c1ccc(-c2cn3c(n2)sc2cc(C(=O)N[C@H]4CCN(C5CCOCC5)C4)ccc23)cc1 [compound 209, (S)-2-(4-(methylcarbamoyl)phenyl)-N-(1-(tetrahydro-2H-pyran-4-yl)pyrrolidin-3-yl)benzo[d]imidazo[2,1-b]thiazole-7-carboxamide] | + (+ >3 and <5) |
| CNC(=O)c1ccc(-c2cn3c(n2)sc2cc(C(=O)NCC4(C)CCOC4)ccc23)cc1 (stereo not drawn) [compound 210, 2-(4-(methylcarbamoyl)phenyl)-N-((3-methyltetrahydrofuran-3-yl)methyl)benzo[d]imidazo [2,1-b]thiazole-7-carboxamide] | + (+ >3 and <5) |
| CNC(=O)c1ccc(-c2cn3c(n2)sc2cc(C(=O)NCCOC(C)C)ccc23)cc1 [compound 211, N-(2-isopropalyethyl)-2-(4-(methylcarbamoyl)phenyl) benzo[d]imidazo[2,1-b]thiazole-7-carboxamide] | − (− ≤3) |
| CNC(=O)c1ccc(-c2cn3c(n2)sc2cc(C(=O)NC[C@H]4CCCN(C)C4)ccc23)cc1 [compound 212, (R)-2-(4-(methylcarbamoyl)phenyl)-N-((1-methylpiperidin-3-yl)methyl)benzo[d]imidazo [2,1-b]thiazole-7-carboxamide] | + (+ >3 and <5) |
| CNC(=O)c1ccc(-c2cn3c(n2)sc2cc(C(=O)N[C@@H](CO)c4ccccc4)ccc23)cc1 [compound 213, (R)-N-(2-hydroxy-1-phenylethyl)-2-(4-(methylcarbamoyl)phenyl) benzo[d]imidazo[2,1-b]thiazole-7-carboxamide] | + (+ >3 and <5) |
| CCN1CCC[C@@H]1CNC(=O)c1ccc2c(c1)sc1nc(-c3ccc(C(=O)NC)cc3)cn12 [compound 214, (R)-N-((1-ethylpyrrolidin-2-yl)methyl)-2-(4-(methylcarbamoyl)phenyl) benzo[d]imidazo[2,1-b]thiazole-7-carboxamide] | + (+ >3 and <5) |
| CCN1CCC(CNC(=O)c2ccc3c(c2)sc2nc(-c4ccc(C(=O)NC)cc4)cn23)CC1 [compound 215, N-((1-ethylpiperidin-4-yl)methyl)-2-(4-(methylcarbamoyl)phenyl) benzo[d]imidazo[2,1-b]thiazole-7-carboxamide] | − (− ≤3) |
| CNC(=O)c1ccc(-c2cn3c(n2)sc2cc(C(=O)NCC4(N(C)C)CCCCC4)ccc23)cc1 [compound 216, N-((1-(dimethylamino)cyclohexyl)methyl)-2-(4-(methylcarbamoyl)phenyl) benzo[d]imidazo[2,1-b]thiazole-7-carboxamide] | + (+ >3 and <5) |
| CNC(=O)c1ccc(-c2cn3c(n2)sc2cc(C(=O)NCCN(C(C)C)C(C)C)ccc23)cc1 [compound 217, N-(2-(diisopropylamino)ethyl)-2-(4-(methylcarbamoyl)phenyl) benzo[d]imidazo[2,1-b]thiazole-7-carboxamide] | + (+ >3 and <5) |
| CCN(CC)CCCNC(=O)c1ccc2c(c1)sc1nc(-c3ccc(C(NC)C(F)(F)F)cc3)cn12 (stereo not drawn) [compound 218, N-(3-(diethylamino)propyl)-2-(4-(2,2,2-trifluoro-1-(methylamino)ethyl)phenyl) benzo[d]imidazo[2,1-b]thiazole-7-carboxamide] | ++ (++ ≥5 and <6) |
| CNC(=O)c1ccc(-c2cn3c(n2)sc2cc(C(=O)N[C@H]4COC[C@@H]4O)ccc23)cc1 [compound 219, N-((3S,4R)-4-hydroxytetrahydrofuran-3-yl)-2-(4-(methylcarbamoyl)phenyl) benzo[d]imidazo[2,1-b]thiazole-7-carboxamide] | + (+ >3 and <5) |
| CNC(=O)c1ccc(-c2cn3c(n2)sc2cc(C(=O)N[C@@H](C)CN)ccc23)cc1 [compound 220, (S)-N-(1-aminopropan-2-yl)-2-(4-(methylcarbamoyl)phenyl) benzo[d]imidazo[2,1-b]thiazole-7-carboxamide] | + (+ >3 and <5) |
| CNC(=O)c1ccc(-c2cn3c(n2)sc2cc(C(=O)NC(C)Cn4cccn4)ccc23)cc1 (stereo not drawn) [compound 221, N-(1-(1H-pyrazol-1-yl)propan-2-yl)-2-(4-(methylcarbamoyl)phenyl) benzo[d]imidazo[2,1-b]thiazole-7-carboxamide] | + (+ >3 and <5) |
| CNC(=O)c1ccc(-c2cn3c(n2)sc2cc(C(=O)N[C@H]4CCNC4)ccc23)cc1 [compound 222, (S)-2-(4-(methylcarbamoyl)phenyl)-N-(pyrrolidin-3-yl)benzo[d]imidazo[2,1-b]thiazole-7-carboxamide] | + (+ >3 and <5) |
| CNC(=O)c1ccc(-c2cn3c(n2)sc2cc(C(=O)NCc4nncn4C4CC4)ccc23)cc1 [compound 223, N-((4-cyclopropyl-4H-1,2,4-triazol-3-yl)methyl)-2-(4-(methylcarbamoyl)phenyl) benzo[d]imidazo[2,1-b]thiazole-7-carboxamide] | − (− ≤3) |
| CNC(=O)c1ccc(-c2cn3c(n2)sc2cc(C(=O)NC[C@H]4CCCN4)ccc23)cc1 [compound 224, (R)-2-(4-(methylcarbamoyl)phenyl)-N-(pyrrolidin-2-ylmethyl)benzo[d]imidazo[2,1-b]thiazole-7-carboxamide] | − (− ≤3) |
| CNC(=O)c1ccc(-c2cn3c(n2)sc2cc(C(=O)N[C@H]4CCN(C)C4)ccc23)cc1 [compound 225, (S)-2-(4-(methylcarbamoyl)phenyl)-N-(1-methylpyrrolidin-3-yl)benzo[d]imidazo[2,1-b]thiazole-7-carboxamide] | + (+ >3 and <5) |
| CNC(=O)c1ccc(-c2cn3c(n2)sc2cc(C(=O)NCC4CC(O)C4)ccc23)cc1 (stereo not drawn) [compound 226, N-((3-hydroxycyclobutyl)methyl)-2-(4-(methylcarbamoyl)phenyl) benzo[d]imidazo[2,1-b]thiazole-7-carboxamide] | − (− ≤3) |
| CNC(=O)c1ccc(-c2cn3c(n2)sc2cc(C(=O)N[C@H]4CCCNC4)ccc23)cc1 [compound 227, (S)-2-(4-(methylcarbamoyl)phenyl)-N-(piperidin-3-yl)benzo[d] imidazo[2,1-b]thiazole-7-carboxamide] | ++ (++ ≥5 and <6) |
| CNC(=O)c1ccc(-c2cn3c(n2)sc2cc(C(=O)N[C@H]4CCCCN(C)C4=O)ccc23)cc1 [compound 228, (S)-N-(1-methyl-2-oxoazepan-3-yl)-2-(4-(methylcarbamoyl)phenyl) benzo[d]imidazo[2,1-b]thiazole-7-carboxamide] | + (+ >3 and <5) |
| CNCCCCNC(=O)c1ccc2c(c1)sc1nc(-c3ccc(C(=O)NC)cc3)cn12 [compound 229, N-(4-(methylamino)butyl)-2-(4-(methylcarbamoyl)phenyl) benzo[d]imidazo[2,1-b]thiazole-7-carboxamide] | + (+ >3 and <5) |
| CNC(=O)c1ccc(-c2cn3c(n2)sc2cc(C(=O)NCC4CCC5(CCNCC5)O4)ccc23)cc1 (stereo not drawn) [compound 230, N-((1-oxa-8-azaspiro[4.5]decan-2-yl)methyl)-2-(4-(methylcarbamoyl)phenyl) benzo[d]imidazo[2,1-b]thiazole-7-carboxamide] | + (+ >3 and <5) |
| CNC(=O)c1ccc(-c2cn3c(n2)sc2cc(C(=O)N[C@H]4CN5CCC4CC5)ccc23)cc1 [compound 231, (R)-2-(4-(methylcarbamoyl)phenyl)-N-(quinuelidin-3-yl)benzo[d]imidazo[2,1-b]thiazole-7-carboxamide] | − (− ≤3) |
| CNC(=O)c1ccc(-c2cn3c(n2)sc2cc(C(=O)NCCCn4nc(C)cc4C)ccc23)cc1 [compound 232, N-(3-(3,5-dimethyl-1H-pyrazol-1-yl)propyl)-2-(4-(methylcarbamoyl)phenyl) benzo[d]imidazo[2,1-b]thiazole-7-carboxamide] | − (− ≤3) |
| CCN1CCC(CNC(=O)c2ccc3c(c2)sc2nc(-c4ccc(C(=O)NC)cc4)cn23)C1 (stereo not drawn) [compound 233, N-((1-ethylpyrrolidin-3-yl)methyl)-2-(4-(methylcarbamoyl)phenyl) benzo[d]imidazo[2,1-b]thiazole-7-carboxamide] | − (− ≤3) |
